Measurements published in US20220088016A1, “CANCER TREATMENT USING MULTI-TARGETED KINASE INHIBITOR IN COMBINATION OF PROTEIN KINASE BIOMARKERS” (ZHEJIANG CROWNMAB BIOTECH CO. LTD., priority 2019, published 2022).

Legend:
ACVR1 = ACVR1 (Homo sapiens, UniProt Q04771); assay: Kinase profiling; type: binding; settings: read-out: % Ctrl @ 1000 nM
AXL = AXL (Homo sapiens, UniProt P30530); assay: Kinase profiling; type: binding; settings: read-out: % Ctrl @ 1000 nM
CAMK1D = CAMK1D (Homo sapiens, UniProt Q8IU85); assay: Kinase profiling; type: binding; settings: read-out: % Ctrl @ 1000 nM
CAMKK2 = CAMKK2 (Homo sapiens, UniProt Q96RR4); assay: Kinase profiling; type: binding; settings: read-out: % Ctrl @ 1000 nM
CLK2 = CLK2 (Homo sapiens, UniProt P49760); assay: Kinase profiling; type: binding; settings: read-out: % Ctrl @ 1000 nM
DDR1 = DDR1 (Homo sapiens, UniProt Q08345); assay: Kinase profiling; type: binding; settings: read-out: % Ctrl @ 1000 nM
EGFR (T790M) = EGFR (T790M) (Homo sapiens, UniProt P00533, T790M); assay: Kinase profiling; type: binding; settings: read-out: % Ctrl @ 1000 nM
EPHB4 = EPHB4 (Homo sapiens, UniProt P54760); assay: Kinase profiling; type: binding; settings: read-out: % Ctrl @ 1000 nM
FGFR4 = FGFR4 (Homo sapiens, UniProt P22455); assay: Kinase profiling; type: binding; settings: read-out: % Ctrl @ 1000 nM
GSK3B = GSK3B (Homo sapiens, UniProt P49841); assay: Kinase profiling; type: binding; settings: read-out: % Ctrl @ 1000 nM
KIT (V559D, T670I) = KIT (V559D, T670I) (Homo sapiens, UniProt P10721, T670I/V559D); assay: Kinase profiling; type: binding; settings: read-out: % Ctrl @ 1000 nM
LZK = LZK (Homo sapiens, UniProt O43283); assay: Kinase profiling; type: binding; settings: read-out: % Ctrl @ 1000 nM
MARK3 = MARK3 (Homo sapiens, UniProt P27448); assay: Kinase profiling; type: binding; settings: read-out: % Ctrl @ 1000 nM
MRCKA = biological target: T1, MRCKA (Homo sapiens, UniProt Q5VT25); assay: Kinase profiling; type: binding; settings: read-out: % Ctrl @ 1000 nM
T1 construct: T7 phage fusion (stated for most kinases of the panel only); made in house; host or cells: T7 phage in E. coli (BL21-derived) or HEK-293 cells

MST4 = biological target: T2, MST4 (Homo sapiens, UniProt Q9P289); assay: Kinase profiling; type: binding; settings: read-out: % Ctrl @ 1000 nM
T2 construct: T7 phage fusion (said for most assays); made in house

NDR1 = biological target: T3, NDR1 (Homo sapiens, UniProt Q15208); assay: Kinase profiling; type: binding; settings: read-out: % Ctrl @ 1000 nM
T3 construct: T7 phage fusion (said for most assays); made in house

PFTK1 = PFTK1 (Homo sapiens, UniProt O94921); assay: Kinase profiling; type: binding; settings: read-out: % Ctrl @ 1000 nM
PHKG1 = PHKG1 (Homo sapiens, UniProt Q16816); assay: Kinase profiling; type: binding; settings: read-out: % Ctrl @ 1000 nM
PIK3C2B = PIK3C2B (Homo sapiens, UniProt O00750); assay: Kinase profiling; type: binding; settings: read-out: % Ctrl @ 1000 nM
PIK3CA (H1047L) = PIK3CA (H1047L) (Homo sapiens, UniProt P42336, H1047L); assay: Kinase profiling; type: binding; settings: read-out: % Ctrl @ 1000 nM
PIM3 = PIM3 (Homo sapiens, UniProt Q86V86); assay: Kinase profiling; type: binding; settings: read-out: % Ctrl @ 1000 nM
PRKCQ = PRKCQ (Homo sapiens, UniProt Q04759); assay: Kinase profiling; type: binding; settings: read-out: % Ctrl @ 1000 nM
PRKG2 = PRKG2 (Homo sapiens, UniProt Q13237); assay: Kinase profiling; type: binding; settings: read-out: % Ctrl @ 1000 nM
RIOK1 = RIOK1 (Homo sapiens, UniProt Q9BRS2); assay: Kinase profiling; type: binding; settings: read-out: % Ctrl @ 1000 nM
SBK1 = SBK1 (Homo sapiens, UniProt Q52WX2); assay: Kinase profiling; type: binding; settings: read-out: % Ctrl @ 1000 nM
STK35 = STK35 (Homo sapiens, UniProt Q8TDR2); assay: Kinase profiling; type: binding; settings: read-out: % Ctrl @ 1000 nM
TAOK1 = TAOK1 (Homo sapiens, UniProt Q7L7X3); assay: Kinase profiling; type: binding; settings: read-out: % Ctrl @ 1000 nM
TGFBR1 = TGFBR1 (Homo sapiens, UniProt P36897); assay: Kinase profiling; type: binding; settings: read-out: % Ctrl @ 1000 nM
TIE2 = TIE2 (Homo sapiens, UniProt Q02763); assay: Kinase profiling; type: binding; settings: read-out: % Ctrl @ 1000 nM
TRPM6 = TRPM6 (Homo sapiens, UniProt Q9BX84); assay: Kinase profiling; type: binding; settings: read-out: % Ctrl @ 1000 nM
WEE1 = WEE1 (Homo sapiens, UniProt P30291); assay: Kinase profiling; type: binding; settings: read-out: % Ctrl @ 1000 nM
YES = YES (Homo sapiens, UniProt P07947); assay: Kinase profiling; type: binding; settings: read-out: % Ctrl @ 1000 nM
BaF3 hCSF1R cell line = assay: Proliferation of engineered BaF3 hCSF1R cell line (CTG assay); type: cell-based; settings: Mus musculus, 72 h; engineered BaF3 hCSF1R; 3 days; CTG; read-out: IC50
Description: Two syngeneic cell lines M-NFS-60 and RAW264.7 and engineered BaF3 hCSFIR cell line were starved and then tested with CBT-102 and other test articles for 3 days in the temperature of 37° C., 5% CO2 and 95% humidity. The cell viability was then detected using CTG assay. The software of GraphPad Prism was used to calculate IC50.
CSF-1 dependent mouse myeloid M-NFS-60 cells were employed as target cells while a CSF-1 independent cell line Raw 264.7 was used as a negative control. In addition to CBT-102, the study also included 3 CSF-1R inhibitors: GW2580, BLZ945 and Pexidartinib.

[1] = tested on: F4-80 (surface marker of macrophages); assay: F4-80 IHC test in MC-38 tumor; design: species or system mouse; settings: end of in vivo efficacy trial; vs vehicle group
Description: MC38 tumor tissues were collected at the end of the in vivo efficacy trial. The tumor tissue was then embedded in paraffin. The expression of CD3/CD4/CD8/F4-80 were tested by immunohistochemistry stain.

Chain of GSK3B (P49841 whole entry): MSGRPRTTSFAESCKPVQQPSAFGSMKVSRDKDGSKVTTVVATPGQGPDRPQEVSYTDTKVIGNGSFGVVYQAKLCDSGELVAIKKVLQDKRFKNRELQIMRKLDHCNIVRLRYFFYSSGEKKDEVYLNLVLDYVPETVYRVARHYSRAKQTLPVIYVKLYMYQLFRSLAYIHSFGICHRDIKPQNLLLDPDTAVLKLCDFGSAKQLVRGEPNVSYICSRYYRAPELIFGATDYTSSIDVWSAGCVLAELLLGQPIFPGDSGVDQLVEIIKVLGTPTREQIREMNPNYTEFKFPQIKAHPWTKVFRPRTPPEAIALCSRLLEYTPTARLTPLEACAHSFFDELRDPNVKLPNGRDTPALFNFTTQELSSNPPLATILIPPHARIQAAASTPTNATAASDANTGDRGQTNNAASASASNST
Chain of SBK1 (Q52WX2 whole entry): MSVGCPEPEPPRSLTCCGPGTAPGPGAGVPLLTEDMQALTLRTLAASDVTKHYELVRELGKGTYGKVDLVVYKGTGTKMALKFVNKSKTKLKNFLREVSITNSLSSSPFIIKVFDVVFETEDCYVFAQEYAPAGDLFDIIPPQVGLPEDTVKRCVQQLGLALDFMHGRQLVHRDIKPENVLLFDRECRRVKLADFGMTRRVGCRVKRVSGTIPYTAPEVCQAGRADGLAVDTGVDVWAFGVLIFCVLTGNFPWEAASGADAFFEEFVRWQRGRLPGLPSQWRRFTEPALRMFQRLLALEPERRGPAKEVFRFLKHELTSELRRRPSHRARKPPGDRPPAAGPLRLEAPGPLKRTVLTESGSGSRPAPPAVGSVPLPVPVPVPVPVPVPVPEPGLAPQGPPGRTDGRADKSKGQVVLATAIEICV
Chain of AXL (P30530 26-894): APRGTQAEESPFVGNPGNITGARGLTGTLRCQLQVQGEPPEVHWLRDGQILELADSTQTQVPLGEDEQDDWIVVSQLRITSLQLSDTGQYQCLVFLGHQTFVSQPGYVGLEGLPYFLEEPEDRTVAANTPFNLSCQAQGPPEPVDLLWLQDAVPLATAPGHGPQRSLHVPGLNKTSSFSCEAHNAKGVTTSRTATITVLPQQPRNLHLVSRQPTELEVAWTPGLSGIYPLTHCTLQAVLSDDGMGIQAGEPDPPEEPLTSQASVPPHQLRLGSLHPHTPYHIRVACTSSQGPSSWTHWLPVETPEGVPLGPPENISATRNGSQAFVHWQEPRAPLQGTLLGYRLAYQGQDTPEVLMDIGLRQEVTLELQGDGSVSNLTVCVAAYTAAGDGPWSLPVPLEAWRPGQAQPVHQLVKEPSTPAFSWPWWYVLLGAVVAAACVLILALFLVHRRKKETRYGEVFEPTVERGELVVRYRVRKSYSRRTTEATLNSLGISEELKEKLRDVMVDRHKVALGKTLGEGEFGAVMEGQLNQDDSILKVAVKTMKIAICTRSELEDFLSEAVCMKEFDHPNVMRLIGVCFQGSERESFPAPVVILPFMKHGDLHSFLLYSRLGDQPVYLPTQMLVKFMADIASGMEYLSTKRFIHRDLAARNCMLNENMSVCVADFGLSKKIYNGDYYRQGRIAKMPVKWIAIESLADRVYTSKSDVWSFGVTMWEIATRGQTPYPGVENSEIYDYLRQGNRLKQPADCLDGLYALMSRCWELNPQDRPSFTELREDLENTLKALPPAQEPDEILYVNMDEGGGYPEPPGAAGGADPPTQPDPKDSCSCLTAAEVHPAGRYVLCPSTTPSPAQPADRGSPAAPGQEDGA
Chain of FGFR4 (P22455 22-802): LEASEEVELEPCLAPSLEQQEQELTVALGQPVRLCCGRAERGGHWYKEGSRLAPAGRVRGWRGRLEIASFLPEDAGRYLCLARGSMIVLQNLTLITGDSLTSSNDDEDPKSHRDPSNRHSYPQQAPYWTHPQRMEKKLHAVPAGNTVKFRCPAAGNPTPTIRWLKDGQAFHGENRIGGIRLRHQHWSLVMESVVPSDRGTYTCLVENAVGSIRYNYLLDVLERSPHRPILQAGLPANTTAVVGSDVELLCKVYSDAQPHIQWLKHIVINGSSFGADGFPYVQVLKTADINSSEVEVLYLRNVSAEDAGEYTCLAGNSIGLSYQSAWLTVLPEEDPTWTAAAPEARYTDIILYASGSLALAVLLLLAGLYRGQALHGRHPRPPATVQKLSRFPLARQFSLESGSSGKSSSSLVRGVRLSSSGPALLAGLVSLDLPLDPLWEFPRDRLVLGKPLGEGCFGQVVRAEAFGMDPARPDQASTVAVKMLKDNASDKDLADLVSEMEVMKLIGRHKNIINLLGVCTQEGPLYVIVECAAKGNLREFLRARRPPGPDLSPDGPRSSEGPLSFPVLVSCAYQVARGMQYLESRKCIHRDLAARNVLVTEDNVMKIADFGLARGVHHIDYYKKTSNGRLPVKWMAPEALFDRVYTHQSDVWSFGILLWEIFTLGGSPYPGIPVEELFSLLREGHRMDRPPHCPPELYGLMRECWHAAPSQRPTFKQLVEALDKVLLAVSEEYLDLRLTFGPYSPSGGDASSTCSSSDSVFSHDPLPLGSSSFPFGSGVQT
Chain of STK35 (Q8TDR2 whole entry): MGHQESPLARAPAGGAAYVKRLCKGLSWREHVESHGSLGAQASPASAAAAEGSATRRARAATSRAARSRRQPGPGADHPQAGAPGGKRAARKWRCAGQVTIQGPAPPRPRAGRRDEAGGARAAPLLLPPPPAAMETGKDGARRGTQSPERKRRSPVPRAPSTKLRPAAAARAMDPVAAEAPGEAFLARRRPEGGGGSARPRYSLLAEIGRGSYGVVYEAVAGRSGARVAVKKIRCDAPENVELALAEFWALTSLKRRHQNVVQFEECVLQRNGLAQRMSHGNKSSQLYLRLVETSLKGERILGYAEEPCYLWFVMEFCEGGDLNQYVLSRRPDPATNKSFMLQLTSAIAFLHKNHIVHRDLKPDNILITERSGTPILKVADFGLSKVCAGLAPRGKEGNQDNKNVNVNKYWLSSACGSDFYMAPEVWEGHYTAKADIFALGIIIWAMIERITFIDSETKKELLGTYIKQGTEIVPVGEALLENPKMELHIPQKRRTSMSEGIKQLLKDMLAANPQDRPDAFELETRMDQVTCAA
Chain of PRKCQ (Q04759 whole entry): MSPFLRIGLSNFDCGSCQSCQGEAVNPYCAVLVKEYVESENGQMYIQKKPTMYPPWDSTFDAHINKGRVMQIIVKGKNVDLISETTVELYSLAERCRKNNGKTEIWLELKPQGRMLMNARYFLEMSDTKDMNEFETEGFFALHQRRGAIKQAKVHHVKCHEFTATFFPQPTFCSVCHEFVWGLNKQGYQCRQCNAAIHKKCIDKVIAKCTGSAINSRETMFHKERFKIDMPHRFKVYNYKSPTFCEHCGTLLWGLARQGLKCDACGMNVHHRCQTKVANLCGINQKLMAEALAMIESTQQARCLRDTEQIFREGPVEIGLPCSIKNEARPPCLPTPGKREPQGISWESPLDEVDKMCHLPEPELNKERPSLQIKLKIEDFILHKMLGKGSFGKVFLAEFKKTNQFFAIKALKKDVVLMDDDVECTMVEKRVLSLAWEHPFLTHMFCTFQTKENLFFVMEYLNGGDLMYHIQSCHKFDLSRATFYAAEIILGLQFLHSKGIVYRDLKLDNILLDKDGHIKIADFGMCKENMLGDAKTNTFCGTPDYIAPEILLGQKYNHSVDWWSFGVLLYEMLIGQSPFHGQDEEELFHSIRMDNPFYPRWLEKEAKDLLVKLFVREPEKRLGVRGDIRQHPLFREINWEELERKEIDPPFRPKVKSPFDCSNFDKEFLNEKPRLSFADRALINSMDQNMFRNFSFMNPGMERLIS
Chain of PFTK1 (O94921 whole entry): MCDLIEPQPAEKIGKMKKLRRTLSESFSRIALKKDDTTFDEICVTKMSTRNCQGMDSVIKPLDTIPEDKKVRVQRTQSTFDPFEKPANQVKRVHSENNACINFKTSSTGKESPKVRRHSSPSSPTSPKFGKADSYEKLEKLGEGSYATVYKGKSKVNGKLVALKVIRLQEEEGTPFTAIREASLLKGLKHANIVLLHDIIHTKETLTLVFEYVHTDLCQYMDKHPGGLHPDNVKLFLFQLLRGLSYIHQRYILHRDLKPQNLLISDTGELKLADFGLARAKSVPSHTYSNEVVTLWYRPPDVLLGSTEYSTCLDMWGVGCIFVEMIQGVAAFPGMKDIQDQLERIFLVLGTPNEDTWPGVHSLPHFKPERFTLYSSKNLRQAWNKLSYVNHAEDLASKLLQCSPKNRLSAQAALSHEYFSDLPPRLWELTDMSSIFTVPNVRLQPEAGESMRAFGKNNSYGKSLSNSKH
Chain of TGFBR1 (P36897 34-503): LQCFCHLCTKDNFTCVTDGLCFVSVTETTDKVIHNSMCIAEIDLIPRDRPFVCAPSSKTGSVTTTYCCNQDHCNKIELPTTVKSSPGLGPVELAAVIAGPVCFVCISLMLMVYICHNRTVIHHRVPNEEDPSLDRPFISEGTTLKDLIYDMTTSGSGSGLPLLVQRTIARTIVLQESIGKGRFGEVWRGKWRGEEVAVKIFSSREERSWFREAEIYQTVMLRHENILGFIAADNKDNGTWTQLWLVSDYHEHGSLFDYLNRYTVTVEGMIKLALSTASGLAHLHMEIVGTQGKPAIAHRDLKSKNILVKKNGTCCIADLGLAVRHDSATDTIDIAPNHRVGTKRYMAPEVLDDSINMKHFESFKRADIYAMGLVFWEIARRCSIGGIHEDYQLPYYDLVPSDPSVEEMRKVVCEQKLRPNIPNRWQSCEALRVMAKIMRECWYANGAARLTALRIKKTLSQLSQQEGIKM

Work on `Cc1cc(Oc2cc(NC(=O)C3CC3)ncn2)ccc1NC(=O)Nc1ccc(Cl)c(C(F)(F)F)c1` [CBT-102] yielded a remaining activity at 1 µM (ACVR1) of 95%, a remaining activity at 1 µM (AXL) of 56% and a remaining activity at 1 µM (CAMK1D) of 81%. It also gave a remaining activity at 1 µM (CAMKK2) of 92%, a remaining activity at 1 µM (CLK2) of 100% and a remaining activity at 1 µM (DDR1) of 0.3%. It also gave a remaining activity at 1 µM (EGFR (T790M)) of 94%, a remaining activity at 1 µM (EPHB4) of 18% and a remaining activity at 1 µM (FGFR4) of 92%. The remaining activity at 1 µM (GSK3B) was 42%, the remaining activity at 1 µM (KIT (V559D, T670I)) was 0.3% and the remaining activity at 1 µM (LZK) was 97%. For the same molecule, the remaining activity at 1 µM (MARK3) was 100%, the remaining activity at 1 µM (MRCKA) was 91% and the remaining activity at 1 µM (MST4) was 100%. The remaining activity at 1 µM (NDR1) was 94%, the remaining activity at 1 µM (PFTK1) was 34% and the remaining activity at 1 µM (PHKG1) was 96%. For the same molecule, the remaining activity at 1 µM (PIK3C2B) was 100%, the remaining activity at 1 µM (PIK3CA (H1047L)) was 100% and the remaining activity at 1 µM (PIM3) was 98%. The remaining activity at 1 µM (PRKCQ) was 95%, the remaining activity at 1 µM (PRKG2) was 91% and the remaining activity at 1 µM (RIOK1) was 54%. The remaining activity at 1 µM (SBK1) was 92%, the remaining activity at 1 µM (STK35) was 93% and the remaining activity at 1 µM (TAOK1) was 49%. It also gave a remaining activity at 1 µM (TGFBR1) of 100%, a remaining activity at 1 µM (TIE2) of 16% and a remaining activity at 1 µM (TRPM6) of 99%. For the same molecule, the remaining activity at 1 µM (WEE1) was 92%, the remaining activity at 1 µM (YES) was 55% and the IC50 (BaF3 hCSF1R cell line) was 588 nM. The “F4-80 IHC score (%) in MC-38 tumor tissue” value [1] was “significantly reduced”.
